Measured values published in US8815915B2, “Benzofuran-2-sulfonamides pyridine derivatives as chemokine receptor modulators” (Allergan, Inc., priority 2012, dated 2014).

Target: T1, CCR2 receptor (Homo sapiens, UniProt P41597)
T1 construct: expressed in transfected cells
Assay: compound-induced calcium activity on FLIPR Tetra in HEK-Gqi5 cells stably expressing CCR2
Type: cell-based
Details: CCR2 receptor, HEK-Gqi5 cells stably expressing CCR2, calcium FLIPR Tetra; for IC50: read-out: IC50
Protocol: HEK-Gqi5 cells stably expressing CCR2 were cultured in (DMEM high glucose, 10% FBS, 1% PSA, 400 μg/ml geneticin and 50 μg/ml hygromycin. Appropriate positive control chemokines (MCP-1, MIP1A or RANTES) was used as the positive control agonist for screening compound-induced calcium activity assayed on the FLIPR^Tetra. The drug plates were prepared in 384-well microplates using the EP3 and the MultiPROBE robotic liquid handling systems. Compounds were synthesized and tested for CCR2 activity.

T1 sequence (P41597 whole entry): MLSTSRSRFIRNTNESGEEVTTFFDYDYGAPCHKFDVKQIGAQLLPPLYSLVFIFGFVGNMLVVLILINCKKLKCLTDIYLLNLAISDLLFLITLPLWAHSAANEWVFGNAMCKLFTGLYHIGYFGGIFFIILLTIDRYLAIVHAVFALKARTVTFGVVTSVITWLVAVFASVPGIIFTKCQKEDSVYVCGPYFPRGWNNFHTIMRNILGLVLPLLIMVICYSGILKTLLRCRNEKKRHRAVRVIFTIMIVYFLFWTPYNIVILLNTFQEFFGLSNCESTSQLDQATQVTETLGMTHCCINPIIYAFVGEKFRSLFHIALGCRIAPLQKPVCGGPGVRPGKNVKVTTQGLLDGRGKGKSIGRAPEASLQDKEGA

Row | SMILES | % ANTAGONISM [%] | IC50 [nM]
1 | Nc1cccc(C[S+]([O-])c2ncc(Cl)cc2NS(=O)(=O)c2cc3ccccc3o2)c1 (centres unmarked) [Compound 19, N-{2-[(3-aminobenzyl)sulfinyl]-5-chloropyridin-3-yl}-1-benzofuran-2-sulfonamide] | 97 | 101
2 | O=S(=O)(Nc1cc(F)cnc1[S+]([O-])Cc1ccccc1)c1cc2ccccc2o1 (centres unmarked) [Compound 16, N-[2-(benzylsulfinyl)-5-fluoropyridin-3-yl]-1-benzofuran-2-sulfonamide] | 95 | 18
3 | O=S(=O)(Nc1cc(Cl)cnc1SCc1cccnc1)c1cc2ccccc2o1 [Compound 4, N-{5-chloro-2-[(pyridin-3-ylmethyl)thio]pyridin-3-yl}-1-benzofuran-2-sulfonamide] | 95 | 32
4 | O=S(=O)(Nc1cc(Cl)cnc1[S+]([O-])Cc1ccccc1)c1cc2ccccc2o1 (centres unmarked) [Compound 2, N-[2-(benzylsulfinyl)-5-chloropyridin-3-yl]-1-benzofuran-2-sulfonamide] | 94 | 31
5 | Nc1cccc(CSc2ncc(Cl)cc2NS(=O)(=O)c2cc3ccccc3o2)c1 [Compound 18, Benzofuran-2-sulfonic acid [2-(3-amino-benzylsulfanyl)-5-chloro-pyridin-3-yl]-amide] | 98 | 95
6 | O=S(=O)(Cc1ccccc1)c1ncc(F)cc1NS(=O)(=O)c1cc2ccccc2o1 [Compound 17, N-[2-(benzylsulfonyl)-5-fluoropyridin-3-yl]-1-benzofuran-2-sulfonamide] | 101 | 43
7 | COC(=O)c1ccccc1Oc1ncc(Cl)cc1NS(=O)(=O)c1cc2ccccc2o1 [Compound 25, methyl 2-({3-[(1-benzofuran-2-ylsulfonyl)amino]-5-chloropyridin-2-yl}oxy)benzoate] | 93 | 215
8 | O=S(=O)(Nc1cccnc1[S+]([O-])Cc1ccccc1)c1cc2ccccc2o1 (centres unmarked) [Compound 9, N-[2-(benzylsulfinyl)pyridin-3-yl]-1-benzofuran-2-sulfonamide] | 100 | 27
9 | Nc1cccc(C[S+]([O-])c2ncccc2NS(=O)(=O)c2cc3ccccc3o2)c1 (centres unmarked) [Compound 12, N-{2-[(3-aminobenzyl)sulfinyl]pyridin-3-yl}-1-benzofuran-2-sulfonamide] | 100 | 255

Other lines, results leading:

Row | % ANTAGONISM [%] | IC50 [nM] | SMILES
10 | 102 | 1230 | O=C(O)c1ccccc1Sc1ncc(Cl)cc1NS(=O)(=O)c1cc2ccccc2o1 [Compound 47, 2-({3-[(1-benzofuran-2-ylsulfonyl)amino]-5-chloropyridin-2-yl}sulfanyl)benzoic acid]
11 | 58 |  | O=C(O)c1ccccc1C[S+]([O-])c1ncccc1NS(=O)(=O)c1cc2ccccc2o1 (centres unmarked) [Compound 59, 2-[({3-[(1-benzofuran-2-ylsulfonyl)amino]pyridin-2-yl}sulfinyl)methyl]benzoic acid]
12 | 97 | 340 | O=C(O)c1ccccc1CSc1ncc(Cl)cc1NS(=O)(=O)c1cc2ccccc2o1 [Compound 36, 2-[({3-[(1-benzofuran-2-ylsulfonyl)amino]-5-chloropyridin-2-yl}sulfanyl)methyl]benzoic acid]
13 | 97 | 68 | O=S(=O)(Nc1cc(F)cnc1[S+]([O-])c1ccccc1)c1cc2ccccc2o1 (centres unmarked) [Compound 41, N-[5-fluoro-2-(phenylsulfinyl)pyridin-3-yl]-1-benzofuran-2-sulfonamide]
14 | 98 | 493 | O=C(O)c1ccccc1CSc1ncccc1NS(=O)(=O)c1cc2ccccc2o1 [Compound 57, 2-[({3-[(1-benzofuran-2-ylsulfonyl)amino]pyridin-2-yl}sulfanyl)methyl]benzoic acid]
15 | 65 | 469 | O=S(=O)(Nc1cc(F)cnc1Sc1ccccc1)c1cc2ccccc2o1 [Compound 40, N-[5-fluoro-2-(phenylsulfanyl)pyridin-3-yl]-1-benzofuran-2-sulfonamide]
